The subject of series [1] is vaccinia virus (strain Copenhagen).
For series [2], the system named is Marburg pseudovirus (GP MARV).
A short description of series [3]: in vitro. The settings on record: African green monkey.
Series [4] can be described thus: in vitro. The following applies: human.
Series [5] deals with vaccinia virus (strain Copenhagen). The series is described as follows: microbe, parasite or virus in culture. The following applies: Orthopoxvirus vaccinia, Vero, 96 h.
Series [6] concerns Marburg pseudovirus (GP MARV). The series is described as follows: microbe, parasite or virus in culture. The settings on record: 24 h.

SMILES strings stand for the structures. Read-outs that look alike come from different tables or passages of the source.

Regarding `C=CCNC(=S)N/N=C1\C[C@@H]2CC[C@@]1(C)C2(C)C` [2′b, (E)-N-allyl-2-((1S,4S)-1,7,7-trimethylbicyclo[2.2.1]heptan-2-ylidene)hydrazinecarbothioamide], the “SI (CC50/IC50)” value stood at 3 in series [1] and 15 in series [2]. Besides, the CC50 in the series “in vitro [3]” worked out at 35 ± 4.6 µM; in the series “in vitro [4]” it was 56.5 ± 8.2 µM. The figures for the IC50 in series [5] and in series [6] were 12 ± 2.9 µM and 3.8 ± 1.9 µM, respectively.
In the case of `CCNC(=S)N/N=C1\C[C@@H]2CC[C@@]1(C)C2(C)C` [2′c, (E)-N-ethyl-2-((1S,4S)-1,7,7-trimethylbicyclo[2.2.1]heptan-2-ylidene)hydrazinecarbothioamide], the “SI (CC50/IC50)” value is 3 in series [1] and 16 in series [2]. Moreover, the values for the CC50 in “in vitro [3]” and in “in vitro [4]” were 45 ± 6.6 µM and 530 ± 35.4 µM, respectively. Also, the half-inhibitory concentration (IC50) is 14 ± 2.6 µM in series [5] and 9.1 ± 3.9 µM in series [6].
`CC1(C)[C@H]2CC[C@]1(C)/C(=N\N=C1\SCC(=O)N1c1ccccc1)C2` [3′a, (Z)-3-phenyl-2-((E)-((1S,4S)-1,7,7-trimethylbicyclo[2.2.1]heptan-2-ylidene)hydrazono)thiazolidin-4-one]: the “SI (CC50/IC50)” value in series [1] is listed as 4. The CC50 in “in vitro [3]” was found to be 290 ± 36.9 µM. 75 ± 13.7 µM corresponded to half-maximal inhibition in series [5] (IC50).
On to `C=CCN1C(=O)CS/C1=N/N=C1/C[C@@H]2CC[C@@]1(C)C2(C)C` [3′b, (Z)-3-allyl-2-((E)-((1S,4S)-1,7,7-trimethylbicyclo[2.2.1]heptan-2-ylidene)hydrazono)thiazolidin-4-one], for which the “SI (CC50/IC50)” value in series [1] is recorded as 2; in series [2], 3. The values for the CC50 in the series “in vitro [3]” and in “in vitro [4]” were 160 ± 20.8 µM and 121 ± 6.5 µM, respectively. The IC50 in series [5] is 66 ± 12.9 µM; in series [6], 45.8 ± 6.5 µM.
Consider `CCN1C(=O)CS/C1=N/N=C1/C[C@@H]2CC[C@@]1(C)C2(C)C` [3′c, (Z)-3-ethyl-2-((E)-((1S,4S)-1,7,7-trimethylbicyclo[2.2.1]heptan-2-ylidene)hydrazono)thiazolidin-4-one], for which the “SI (CC50/IC50)” value in series [1] was 4; in series [2] it was 3. Moreover, the figures for the CC50 in the series “in vitro [3]” and in “in vitro [4]” were 220 ± 28.6 µM and 170 ± 40.9 µM, respectively. Moreover, the IC50 in series [5] worked out at 64 ± 12.3 µM; in series [6], 68.2 ± 20.4 µM.
For the molecule `CN1C(=O)CS/C1=N/N=C1/C[C@@H]2CC[C@@]1(C)C2(C)C` [3′d, (Z)-3-methyl-2-((E)-((1S,4S)-1,7,7-trimethylbicyclo[2.2.1]heptan-2-ylidene)hydrazono)thiazolidin-4-one], the “SI (CC50/IC50)” value in series [2] came to 6. The CC50 in the series “in vitro [3]” was found to be 250 ± 31.4 µM; in “in vitro [4]”, 182 ± 14.3 µM. For the same molecule, the IC50 in series [6] is 28.6 ± 10.7 µM.
On to `Nc1ccn(C[C@@H](CO)OCP(=O)(O)O)c(=O)n1` [Cidofovir, reference compound], for which, in series [1], the “SI (CC50/IC50)” value is reported as 12. Besides, the CC50 in the series “in vitro [3]” amounted to 475 ± 74.9 µM. In addition, in series [5], the IC50 amounted to 40.1 ± 2.8 µM.
As for `C=CCN1C(=O)CS/C1=N/N=C1/C[C@H]2CC[C@]1(C)C2(C)C` [Compound 3b, (Z)-3-allyl-2-((E)-((1R,4R)-1,7,7-trimethylbicyclo[2.2.1]heptan-2-ylidene)hydrazono)thiazolidin-4-one], the “SI (CC50/IC50)” value in series [2] is on record as 5. The values for the CC50 in the series “in vitro [3]” and in “in vitro [4]” were 99 ± 11.8 µM and 108 ± 6.5 µM, respectively. The IC50 in series [5] was determined as 72 ± 12.2 µM; in series [6] it was 22.9 ± 0.7 µM.
On to `CCN1C(=O)CS/C1=N/N=C1/C[C@H]2CC[C@]1(C)C2(C)C` [Compound 3c, (Z)-3-ethyl-2-((E)-((1R,4R)-1,7,7-trimethylbicyclo[2.2.1]heptan-2-ylidene)hydrazono)thiazolidin-4-one], for which the “SI (CC50/IC50)” value turned out to be 4 in series [1] and 2 in series [2]. The CC50 was found to be 87 ± 10.1 µM in the series “in vitro [3]” and 54.1 ± 9.2 µM in the series “in vitro [4]”. Also, the concentration for half-maximal inhibition (IC50) in series [5] was found to be 24 ± 3.9 µM; in series [6], 30.7 ± 6.8 µM.
As to `CN1C(=O)CS/C1=N/N=C1/C[C@H]2CC[C@]1(C)C2(C)C` [Compound 3d, (Z)-3-methyl-2-((E)-((1R,4R)-1,7,7-trimethylbicyclo[2.2.1]heptan-2-ylidene)hydrazono)thiazolidin-4-one], in series [1], the “SI (CC50/IC50)” value was 3. Moreover, the CC50 in “in vitro [3]” turned out to be 310 ± 41.3 µM. This molecule gave an IC50 in series [5] of 100 ± 17.6 µM.
In the case of `CC1(C)S/C(=N/N=C2/C[C@H]3CC[C@]2(C)C3(C)C)N(c2ccccc2)C1=O` [Compound 4a, (Z)-5,5-dimethyl-3-phenyl-2-((E)-((1R,4R)-1,7,7-trimethylbicyclo[2.2.1]heptan-2-ylidene)hydrazono)thiazolidin-4-one], the “SI (CC50/IC50)” value in series [1] came to 8; in series [2], 3. Besides, the results for the CC50 in the series “in vitro [3]” and in “in vitro [4]” were 270 ± 35.2 µM and 325 ± 36.1 µM, respectively. In addition, the half-inhibitory concentration (IC50) in series [5] was found to be 32.5 ± 2.8 µM; in series [6], 94.7 ± 8.1 µM.
On to `CCN1C(=O)C(C)(C)SC1=NN=C1CC2CCC1(C)C2(C)C` [Compound 4c, ((Z)-3-ethyl-5,5-dimethyl-2-((E)-((1R,4R)-1,7,7-trimethylbicyclo[2.2.1]heptan-2-ylidene)hydrazono)thiazolidin-4-one], for which the “SI (CC50/IC50)” value in series [2] amounted to 5. The results for the CC50 in the series “in vitro [3]” and in “in vitro [4]” were 290 ± 34.9 µM and 778 ± 82.8 µM, respectively. This molecule also showed a half-inhibitory concentration (IC50) in series [6] of 171 ± 46.7 µM.
Regarding `C=CCn1c(-c2ccc(Cl)cc2)cs/c1=N/N=C1\C[C@H]2CC[C@]1(C)C2(C)C` [Compound 5b, (E)-3-allyl-4-(4-chlorophenyl)-2-((E)-((1R,4R)-1,7,7-trimethylbicyclo[2.2.1]heptan-2-ylidene)hydrazono)-2,3-dihydrothiazole], the “SI (CC50/IC50)” value is on record as 8 in series [1] and 3 in series [2]. In addition, the results for the CC50 in the series “in vitro [3]” and in “in vitro [4]” were 19 ± 2.8 µM and 80 ± 20 µM, respectively. The concentration for half-maximal inhibition (IC50) in series [5] turned out to be 2.5 ± 0.3 µM; in series [6], 30 ± 10 µM.
As for `CCn1c(-c2ccc(Cl)cc2)cs/c1=N/N=C1\C[C@H]2CC[C@]1(C)C2(C)C` [Compound 5c, (E)-4-(4-chlorophenyl)-3-ethyl-2-((E)-((1R,4R)-1,7,7-trimethylbicyclo[2.2.1]heptan-2-ylidene)hydrazono)-2,3-dihydrothiazole], the “SI (CC50/IC50)” value in series [1] stood at 6; in series [2], 2. Moreover, the CC50 in “in vitro [3]” came to 70 ± 8.9 µM; in “in vitro [4]”, 51.6 ± 15.5 µM. Besides, the IC50 was found to be 12 ± 1.5 µM in series [5] and 25.8 ± 5.2 µM in series [6].
As to `Cc1ccc(-c2cs/c(=N/N=C3\C[C@H]4CC[C@]3(C)C4(C)C)n2-c2ccccc2)cc1` [Compound 6a, (E)-3-phenyl-4-p-tolyl-2-((E)-((1R,4R)-1,7,7-trimethylbicyclo[2.2.1]heptan-2-ylidene)hydrazono)-2,3-dihydrothiazole], the “SI (CC50/IC50)” value in series [2] stood at 2. The CC50 in “in vitro [3]” is 98 ± 11.6 µM; in “in vitro [4]”, 135 ± 19.2 µM. Moreover, it took 60.2 ± 14.4 µM to reach half-maximal inhibition in series [6] (IC50).
In the case of `C=CCn1c(-c2ccc(C)cc2)cs/c1=N/N=C1\C[C@H]2CC[C@]1(C)C2(C)C` [Compound 6b, (E)-3-allyl-4-p-tolyl-2-((E)-((1R,4R)-1,7,7-trimethylbicyclo[2.2.1]heptan-2-ylidene)hydrazono)-2,3-dihydrothiazole], the “SI (CC50/IC50)” value in series [1] is 3; in series [2], 7. For the same molecule, the CC50 in “in vitro [3]” is 12 ± 2.1 µM; in “in vitro [4]”, 39.5 ± 4.8 µM. Moreover, the concentration for half-maximal inhibition (IC50) in series [5] was 4 ± 0.6 µM; in series [6], 5.3 ± 2.6 µM.
Regarding `CCn1c(-c2ccc(C)cc2)cs/c1=N/N=C1\C[C@H]2CC[C@]1(C)C2(C)C` [Compound 6c, (E)-3-ethyl-4-p-tolyl-2-((E)-((1R,4R)-1,7,7-trimethylbicyclo[2.2.1]heptan-2-ylidene)hydrazono)-2,3-dihydrothiazole], in “in vitro [3]”, the CC50 came to 15 ± 2.9 µM.
For the molecule `Cc1ccc(-c2cs/c(=N/N=C3\C[C@H]4CC[C@]3(C)C4(C)C)n2C)cc1` [Compound 6d, (E)-3-methyl-4-p-tolyl-2-((E)-((1R,4R)-1,7,7-trimethylbicyclo[2.2.1]heptan-2-ylidene)hydrazono)-2,3-dihydrothiazole], the “SI (CC50/IC50)” value in series [1] and in series [2] was 3 throughout. Further, the CC50 in the series “in vitro [3]” was determined as 17 ± 3.1 µM; in the series “in vitro [4]”, 79.2 ± 8.5 µM. For the same molecule, the half-inhibitory concentration (IC50) in series [5] came to 5.1 ± 0.7 µM; in series [6], 28.3 ± 8.5 µM.
On to `COc1ccc(-c2cs/c(=N/N=C3\C[C@H]4CC[C@]3(C)C4(C)C)n2-c2ccccc2)cc1` [Compound 7a, (E)-4-(4-methoxyphenyl)-3-phenyl-2-((E)-((1R,4R)-1,7,7-trimethylbicyclo[2.2.1]heptan-2-ylidene)hydrazono)-2,3-dihydrothiazole], for which, in series [2], the “SI (CC50/IC50)” value is on record as 8. In addition, the CC50 in “in vitro [3]” amounted to 232 ± 29.6 µM; in “in vitro [4]”, 973 ± 61.6 µM. This molecule showed a half-maximal inhibitory concentration (IC50) in series [6] of 127 ± 23.2 µM.
As for `C=CCn1c(-c2ccc(OC)cc2)cs/c1=N/N=C1\C[C@H]2CC[C@]1(C)C2(C)C` [Compound 7b, (E)-3-allyl-4-(4-methoxyphenyl)-2-((E)-((1R,4R)-1,7,7-trimethylbicyclo[2.2.1]heptan-2-ylidene)hydrazono)-2,3-dihydrothiazole], the “SI (CC50/IC50)” value in series [2] was 3. The results for the CC50 in the series “in vitro [3]” and in “in vitro [4]” were 200 ± 23.1 µM and 37.9 ± 8.3 µM, respectively. Moreover, the midpoint of inhibition in series [6], the IC50, lay at 13.9 ± 2.5 µM.
On to `CCn1c(-c2ccc(OC)cc2)cs/c1=N/N=C1\C[C@H]2CC[C@]1(C)C2(C)C` [Compound 7c, (E)-3-ethyl-4-(4-methoxyphenyl)-2-((E)-((1R,4R)-1,7,7-trimethylbicyclo[2.2.1]heptan-2-ylidene)hydrazono)-2,3-dihydrothiazole], for which, in series [2], the “SI (CC50/IC50)” value worked out at 9. Besides, the CC50 in the series “in vitro [4]” is 117 ± 10.4 µM. For the same molecule, the half-maximal inhibitory concentration (IC50) in series [6] came to 13 ± 5.2 µM.
With `COc1ccc(-c2cs/c(=N/N=C3\C[C@H]4CC[C@]3(C)C4(C)C)n2C)cc1` [Compound 7d, (E)-4-(4-methoxyphenyl)-3-methyl-2-((E)-((1R,4R)-1,7,7-trimethylbicyclo[2.2.1]heptan-2-ylidene)hydrazono)-2,3-dihydrothiazole], in series [2], half-maximal inhibition (IC50) was put at 27.1 ± 8.1 µM and the “SI (CC50/IC50)” value is 4. Besides, the CC50 in “in vitro [4]” was 97.4 ± 21.6 µM.
As to `CN[C@H]1CC[C@@H](c2ccc(Cl)c(Cl)c2)c2ccccc21` [Sertraline, reference compound], the CC50 in “in vitro [4]” worked out at 408 ± 35.9 µM.

Usually IC50 stands for the point on the concentration scale where inhibition reaches its midpoint.
